Source: patent publication US9034859B2, “Sulfated oxysterol and oxysterol sulfation by hydroxysterol sulfotransferase promote lipid homeostasis and liver proliferation” (Virginia Commonwealth University, priority 2011, dated 2015)

What was measured:
SREBP-1c pathway = assay: Western blot of cytoplasmic and nuclear liver extracts, acute treatment; type: in vivo, C57BL/6J female mice; settings: HFD mice
Description: Animal studies were approved by Institutional Animal Care and Use Committee of McGuire Veterans Affairs Medical Center and were conducted in accordance with the Declaration of Helsinki, the Guide for the Care and Use of Laboratory Animals, and all applicable regulations. […] All mice were housed under identical conditions in an aseptic facility and given free access to water and food. At the end of each period, the mice were intraperitoneally injected with vehicle solution (ethanol/PBS; […] Serum triglyceride, total cholesterol, high density lipoprotein-cholesterol, glucose, alkaline phosphatase (ALK), alanine aminotransferase (ALT), and aspartate aminotransferase (AST) were measured using standard enzymatic techniques in the clinical laboratory at McGuire Veterans Affairs Medical Center. Lipoprotein profiles in sera were analyzed by HPLC as following described. Liver tissues were homogenized, and cytoplasmic and nuclear fractions were extracted with NE-PER Nuclear and Cytoplasmic Extraction Kit (Fisher Scientific, Pittsburgh, Pa.). […] Each positive band was quantified by Advanced Image Data Analyzer (Aida, Straubenhardt, Germany).

[1] = Pharmacokinetics and tissue biodistribution of radioactivity after i.v. injection; type: in vivo, C57BL/6 mice
Description: In a separate set of experiments, mice received an i.v. injection of [^3H]-25HC3S (1×10^6 cpm/mouse) and 25HC3S (5 mg/kg). At 4, 24, 48, and 96 h after the injection, mice were sacrificed, tissues (brain, heart, lung, liver, kidney, spleen, stomach, small intestine, skeletal muscle, and colon) were rapidly dissected and weighed, and the radioactivity was measured using a liquid scintillation counter with automatic decay correction (Beckman Counter, Atlanta, Ga.). Tissue values were calculated as a percentage of injected counts per gram of tissue (% IC/g). For pharmacokinetics, blood samples (30 μl) were collected at selected times after injection from 0 to 96 h via tail clip. Counts of radioactivity were expressed as IC/ml of blood.

[2] = Long-term treatment of HFD-fed mice: body mass, liver weight, plasma lipids, liver function; type: in vivo, C57BL/6J female mice
Description: Animal studies were approved by Institutional Animal Care and Use Committee of McGuire Veterans Affairs Medical Center and were conducted in accordance with the Declaration of Helsinki, the Guide for the Care and Use of Laboratory Animals, and all applicable regulations. To examine the effect of 25HC3S on diet-induced lipid accumulation in sera and liver, 8-week-old female C57BL/6J mice (Charles River, Wilmington, Mass.) were randomly assigned to three groups: the first control group was fed a chow diet; the high fat diet (HFD) group was fed a HFD (Harlan Teklad, Madison, Wis.) containing 42% kcal from fat, 43% kcal from carbohydrate, 15% kcal from protein and 0.2% cholesterol; and the high cholesterol diet (HCD) group was fed a 2% cholesterol diet with 18% kcal from fat, 58% kcal from carbohydrate and 24% kcal from protein for 10 weeks, respectively. All mice were housed under identical conditions in an aseptic facility and given free access to water and food. At the end of each period, the mice were intraperitoneally injected with vehicle solution (ethanol/PBS; Vehicle), 25HC (25 mg/kg), or 25HC3S (25 mg/kg) for 2 times and fasted over night for acute treatment (n=15-17 for each group) or once every three days for 6 weeks (n=16 for each group) and fasted 5 hrs for long-term treatment; and blood samples were collected. Serum triglyceride, total cholesterol, high density lipoprotein-cholesterol, glucose, alkaline phosphatase (ALK), alanine aminotransferase (ALT), and aspartate aminotransferase (AST) were measured using standard enzymatic techniques in the clinical laboratory at McGuire Veterans Affairs Medical Center. Lipoprotein profiles in sera were analyzed by HPLC as following described.

[3] = test system: genes related to cell cycle progression; assay: RTqPCR of cell cycle-related genes in mouse liver after 25HC3S (Example 3); type: in vivo, C57BL/6 mice; settings: doses lower than 5 mg/kg, 48 h, dose-dependent
Description: PCR assays were performed in 96-well optical reaction plates using the ABI 7500 Fast Real-Time PCR System (Applied Biosystems, Foster City, Calif.). PCR assays were conducted in triplicate wells for each sample. Baseline values of amplification plots were set automatically and threshold values were kept constant to obtain normalized cycle times and linear regression data. The following reaction mixture per well was used: 2×SYBR Green PCR Master Mix (10 ul), primer at the final concentration of 10 uM (1 ul), RNAse-free water (4 ul), cDNA (5 ul, 10 ng). For all experiments the following PCR conditions were used: denaturation at 95° C. for 10 minutes, followed by 40 cycles at 95° C. for 15 seconds, then at 60° C. for 60 seconds. Quantitative normalization of cDNA in each sample was performed using 18S gene as an internal control. Relative quantification was performed using the ΔΔCT method. Suitable primers were used for RtqPCR.

[4] = test system: primary rat hepatocytes (PRH); assay: Western blot in primary rat hepatocytes (Example 4); type: cell-based; settings: Ad-Control-infected group, T0901317 1.5 μM or 25HC 3 μM
Description: PRH were prepared as previously described (24). Briefly, parenchymal cells (3.5×10^6) were inoculated in 60-mm plastic Petri dishes coated with rat tail collagen. The plates contained 3 ml of Williams E culture media supplemented with thyroxine (1 μM), dexamethasone (0.1 μM), and penicillin (100 units/ml). Three hours after plating, culture medium was removed and fresh medium was added. Cells were then infected with Ad-SULT2B1b at a multiplicity (MOI) of 10 plaque forming units/cell (pfu/cell) or 100 nM of siRNA-SULT2B1b (ON-TARGET plus siRNA of rat SULT2B1b, Thermo Scientific Dharmacon, Lafayette, Colo.) as previously described (31). The Ad-Control and siRNA-Control (ON-TARGET plus negative control siRNA) were used as controls, respectively. Twenty four hours after infection, cells were treated with T0901317 (1.5 μM) or 25HC (3 μM) for another 24 hours. The cells were harvested at the timepoints as indicated in the text.
Cell lysates were prepared from frozen mouse liver tissues or PRH, and 50 μg of the total proteins were separated by 10% SDS-PAGE, transferred to polyvinylidene difluoride membrane (Millipore, Eschbom, Germany). Specific protein was probed with specific antibodies against PCNA, human SULT2B1b (Santa Cruz Biotechnology, Santa Cruz, Calif.), LXRα (Abcam, Cambridge, Mass.), ATP-binding cassette transporters 1 (ABCA1) (Abcam, Cambridge, Mass.), and SREBP1 (Santa Cruz Biotechnology, Santa Cruz, Calif.). β-Actin (Sigma-Aldrich, St. Louis, Mo.) was used as a loading control. Western analysis was performed by methods known in the art.

[5] = i.v. [3H]-25HC3S and 25HC3S 5 mg/kg

Structure (SMILES)	suppression of FAS protein level (SREBP-1c pathway) [%]	suppression of cytoplasmic ACC1 protein level (SREBP-1c pathway) [%]	suppression of nuclear SREBP-1c protein level (SREBP-1c pathway) [%]	maximum level of 3H-radioactivity in blood ([1]; i.v. [3H]-25HC3S (1×10^6 cpm/mouse) and 25HC3S 5 mg/kg) [% IC/g]	time at which blood 3H-radioactivity decreased to the half level [1, 5] [h]	time of maximum 3H-radioactivity in blood [1, 5] [h]	clearance ([1]; i.v., blood radioactivity)	time of highest uptake of 3H-radioactivity in most organs ([1]; i.v., measured at 4, 24, 48 and 96 h) [h]	liver weight ([2]; 6 weeks injection, fasted 5 hrs)	body mass ([2]; i.p. once every three days, 6 weeks, control kept increasing)	serum ALK, ALT and AST levels ([2]; long-term treatment)	plasma triglyceride level ([2]; long-term treatment (data not shown))	plasma cholesterol level ([2]; long-term treatment, compared to vehicle (data not shown))	hepatic mRNA of cMyc, cyclin A, FoxM1b, CDC25b [3]	nuclear SREBP-1, cytoplasmic ACC1 and FAS protein levels (SREBP-1c pathway)	LXR response gene expressions [4]	PCNA expression [4]
CC(CCCC(C)(C)O)C1CCC2C3CC=C4CC(OS(=O)(=O)O)CCC4(C)C3CCC12C (centres unmarked) [25HC3S, 25-hydroxycholesterol-3-sulfate]	40	50	70	7	48	1	slow clearance	4	significantly decreased	stopped increasing body mass	significantly reduced	did not significantly decrease	significantly decreased	significant up-regulation			
C[C@H](CCCC(C)(C)O)[C@H]1CC[C@H]2[C@@H]3CC=C4C[C@@H](O)CC[C@]4(C)[C@H]3CC[C@]12C [25HC, 25-hydroxycholesterol]															increased	significantly increased	decreased
